Measurements published in patent publication US8772348B2, “Materials and methods for pest control” (priority 2009, dated 2014).
Like-named read-outs stand apart in the source and are kept apart here.

Assays:
Aedes aegypti [1] = conditions: formulation on plywood panels at 1.67 mg cm^−2, 2 h exposure, mortality 24 h after initial exposure
Method: Briefly, after mosquitoes are assayed on unpainted plywood panel boards with formulation at a concentration of 1.67 mg cm^−2 for 2 hours, they are transferred into a separate glass jar, and held for another 24 hours. The mortality rate is measured daily for a continuous 4 days (Day 1 starts at 24 hours after the transfer), as is determined using the same procedures as are illustrated in Example 2.
(§1) Plywood panels (225 cm^2) were treated with chemicals at a rate of 1.67 mg cm^−2. Panels were treated on day 0 and was held until exposure on post-treatment day. Mosquitoes were exposed to chemicals for 2 h, and mortality rate was assessed 24 h after initial exposure. Control contained formulation ingredients without semiochemicals.

Musca domestica = conditions: M. domestica; formulation on plywood panels at 1.67 mg cm^−2; mortality 24 h after
Method: Briefly, each fly strain is divided into eight sets: three sets as the experiment, four sets as the positive control, and one set as the negative control. Flies are assayed on unpainted plywood panel boards that have been previously exposed to natural summer weather conditions for at least 10 days. […] The positive control set is treated with permethrin, geranyl acetone, rosalva or citronellol. The negative control set is treated with water. The formulation is applied at a uniform rate of 7.5 ml per 225 cm^2, sufficient to cover the entire panel without dripping. Subsequently, the treated panel boards are dried for about an hour.
In each set, 20 adult flies are placed onto the panel boards. Flies are secured with wooden embroidery hoops, covered with a coarse mesh screen cloth previously sprayed with the respective formulation. After 4 hours, flies are transferred into a clean jar. The mortality rate is measured 24 hours after the transfer, and is determined using the same procedures as are illustrated in Example 2.
as §1, with “mgcm^−2.” for “mg cm^−2.”, “and” for “and was”

Aedes aegypti [2] = conditions: filter paper discs, after a 24-hour exposure
Method: Briefly, yellow fever mosquito, Ae. aegypti were obtained from strains that have been cultured in the laboratory of the Entomology and Nematology Department, University of Florida.
The mortality rate is measured after a 2-hour, 4-hour and 24-hour exposure period. Ataxic mosquitoes are considered dead.
The ability of Ae. aegypti to recover from insecticidal exposure is also investigated. After a 2-hour exposure, each set of Ae. aegypti is transferred into a separate jar. The mortality rate is measured at two time intervals: first, immediately at the transfer (2 hours after the initial exposure), and second, 22 hours after the transfer (24 hours after the initial exposure).

## CC1(C)CCCC2=C1CC(C=O)CC2 (stereo not drawn) [Cyclemone A, 2-naphthaldehyde, 1,2,3,4,5,6,7,8-octahydro-8,8-dimethyl]
Aedes aegypti [1]; day 1
  % mortality on various days following treatment: 100.00a %
Aedes aegypti [1]; day 2
  % mortality on various days following treatment: 72.00b %
Aedes aegypti [1]; day 3
  % mortality on various days following treatment: 28.0b %
Aedes aegypti [1]; day 4
  % mortality on various days following treatment: 13.0b %
Musca domestica
  % mortality: 48.20b %
Aedes aegypti [2]
  mortality rate: ~100%
